Laboratory results from patent US20110045101A1, “FUNGICIDAL SUBSTITUTED AZOLES” (E.I. Du Pont De Nemours and Company, priority 2009, published 2011).
Marks after values point to notes of the source that are not given here.

Key:
Assay type in all cases: in vivo
[1] = system: Puccinia recondita f. sp. tritici; assay: Test H: wheat leaf rust, test suspension sprayed after inoculation of wheat seedlings, visual disease rating; settings: 100 = 100% disease control; for pest or weed control at 200 ppm: Puccinia recondita, 96 h
Outline: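 Wheat seedlings inoculated with P. recondita spores, held 24 h saturated at 20 °C, then 2 days in growth chamber at 20 °C; compound suspension (acetone/water with Trem 014) sprayed to run-off afterwards. Rated visually; 200 ppm (≈500 g/ha) unless marked *, which denotes 40 ppm.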

Septoria tritici = assay: Test G: wheat leaf blotch on wheat seedlings, sprayed the day before inoculation, visual disease rating; settings: 100 = 100% disease control; for pest or weed control at 200 ppm: Zymoseptoria tritici, 504 h
Outline: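 Visual disease ratings taken 19 days after transfer to a 20° C growth chamber, following 48 h in saturated atmosphere at 24° C. Seedlings had been sprayed to run-off one day before spore inoculation. Dose 200 ppm, or 40 ppm where starred.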

[2] = system: Puccinia recondita f. sp. tritici; assay: Test I: wheat leaf rust on wheat seedlings, sprayed the day before inoculation, visual disease rating; settings: 100 = 100% disease control; for pest or weed control at 200 ppm: Puccinia recondita, 168 h
Outline: (§1)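 Spray suspension: acetone 3% of final volume, then 50/50 acetone/water plus 250 ppm Trem® 014. Applied to run-off on seedlings at 200 ppm (≈500 g/ha); starred entries tested at 40 ppm.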

[3] = system: Erysiphe graminis f. sp. tritici; assay: Test J: wheat powdery mildew on wheat seedlings, sprayed the day before inoculation, visual disease rating; settings: 100 = 100% disease control; for pest or weed control at 200 ppm: Blumeria graminis, 168 h
Outline: as §1

Septoria nodorum = assay: Test F: wheat glume blotch on wheat seedlings, sprayed the day before inoculation, visual disease rating; settings: 100 = 100% disease control; for pest or weed control at 200 ppm: Parastagonospora nodorum, 264 h
Outline: as §1

Botrytis cinerea = assay: Test C: tomato Botrytis on tomato seedlings, sprayed the day before inoculation, visual disease rating; settings: 100 = 100% disease control; for pest or weed control at 200 ppm: Botrytis cinerea, 120 h
Outline: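 Spray to run-off on tomato seedlings; test conc. 200 ppm (≈500 g/ha), some entries 40 ppm. Formulation: acetone 3% of final vol., then acetone/water 50:50 + 250 ppm polyhydric alcohol ester surfactant.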

Alternaria solani = assay: Test D: tomato early blight, sprayed the day before inoculation, visual disease rating; settings: 100 = 100% disease control; for pest or weed control at 200 ppm: Alternaria solani, 168 h
Outline: as §1

[4] = 200 ppm, 0 = no control relative to controls
[5] = 40 ppm (marked *), 0 = no control

Row | Structure (SMILES) | Test H disease control rating [1, 4] [%] | Test G disease control rating (Septoria tritici; [4]) [%] | Test I disease control rating [2, 4] [%] | Test J disease control rating [3, 4] [%] | Test F disease control rating (Septoria nodorum; [4]) [%] | Test C disease control rating (Botrytis cinerea; [4]) [%] | Test D disease control rating (Alternaria solani; [4]) [%] | also measured
1 | COc1cc(OC)cc(-c2c(Br)nc(C)n2-c2c(F)cc([N+](=O)[O-])cc2F)c1 [compound 651] | 0 | 97 | 95 | 79 | 60 | 97 | 0 | –
2 | COc1ccc(F)c(-c2c(Br)nc(Cl)n2-c2ccc(Cl)cc2)c1F [compound 510] | 9 | 99 | 98 | 100 | 100 | 99 | 100 | –
3 | COc1cc(F)c(-c2c(Cl)ncn2-c2ccccc2)c(F)c1 [compound 420] | 0 | 100 | 100 | 100 | 99 | 100 | 100 | –
4 | COc1cc(OC)c(Br)c(-n2cnc(Br)c2-c2ccc(Cl)cc2F)c1Cl [compound 642] | – | – | – | – | – | – | – | Test H disease control rating ([1]; 40 ppm (marked *)): 0* %; Test G disease control rating (Septoria tritici; 40 ppm (marked *)): 94* %; Test I disease control rating ([2]; 40 ppm (marked *)): 98* %; Test J disease control rating ([3]; 40 ppm (marked *)): 56* %; Test F disease control rating (Septoria nodorum; 40 ppm (marked *)): 0* %; Test C disease control rating (Botrytis cinerea; 40 ppm (marked *)): 97* %; Test D disease control rating (Alternaria solani; 40 ppm (marked *)): 0* %
5 | Cc1ncn(-c2ccc(Cl)c(F)c2)c1-c1ccnc(F)c1 [compound 319] | 6 | 98 | 28 | 81 | 0 | 99 | 24 | –
6 | N#Cc1ccc(F)c(-c2c(Cl)ncn2-c2ccc(Cl)cc2)c1F [Compound 386, 3-[4-chloro-1-(4-chlorophenyl)-1H-imidazol-5-yl]-2,4-difluorobenzonitrile] | – | – | – | – | – | – | – | pest or weed control at 200 ppm [1, 4]: 0%; pest or weed control at 200 ppm (Septoria tritici; [4]): 96%; pest or weed control at 200 ppm [2, 4]: 98%; pest or weed control at 200 ppm [3, 4]: 95%; pest or weed control at 200 ppm (Septoria nodorum; [4]): 0%; pest or weed control at 200 ppm (Botrytis cinerea; [4]): 99%; pest or weed control at 200 ppm (Alternaria solani; [4]): 100%
7 | COc1ccc(F)c(-c2c(Br)nc(Cl)n2-c2ccc(F)cc2)c1F [compound 472] | 80 | 96 | 100 | 100 | 100 | 100 | 100 | –
8 | COc1cc(F)c(-c2c(Cl)nc(Cl)n2-c2ccc(C)nc2)c(F)c1 [compound 553] | 100 | 99 | 100 | 100 | 100 | 100 | 100 | –
9 | CNc1nc(Cl)c(-c2c(F)cc(OC)cc2F)n1-c1ccc(Cl)cc1 [compound 692] | 8 | 99 | 0 | 79 | 0 | 100 | 70 | –
10 | Cc1ncn(-c2ccc(Cl)cn2)c1-c1c(F)cccc1F [compound 320] | 0 | 100 | 28 | 99 | 0 | 99 | 67 | –
11 | Cc1nc(C)n(-c2c(F)cc(F)cc2F)c1-c1ccc(Cl)cc1 [compound 308] | – | – | – | – | – | – | – | Test H disease control rating [1, 5]: 11* %; Test G disease control rating (Septoria tritici; [5]): 88* %; Test I disease control rating [2, 5]: 41* %; Test J disease control rating [3, 5]: 0* %; Test F disease control rating (Septoria nodorum; [5]): 0* %; Test C disease control rating (Botrytis cinerea; [5]): 99* %; Test D disease control rating (Alternaria solani; [5]): 100* %
12 | Cc1ncn(-c2ccc(Cl)c(F)c2)c1-c1ccnc(Br)c1 [compound 345] | 0 | 27 | 0 | 0 | 0 | 64 | 0 | –
13 | COc1cc(F)c(-c2c(C)nc(C)n2-c2ccc(F)cc2)c(F)c1 [compound 522] | – | – | – | – | – | – | – | Test H disease control rating ([1]; 40 ppm (marked *)): 0* %; Test G disease control rating (Septoria tritici; 40 ppm (marked *)): 98* %; Test I disease control rating ([2]; 40 ppm (marked *)): 99* %; Test J disease control rating ([3]; 40 ppm (marked *)): 96* %; Test F disease control rating (Septoria nodorum; 40 ppm (marked *)): 0* %; Test C disease control rating (Botrytis cinerea; 40 ppm (marked *)): 100* %; Test D disease control rating (Alternaria solani; 40 ppm (marked *)): 100* %
14 | COc1ccc(F)c(-c2c(Cl)nc(C)n2-c2cccc(C)c2)c1F [compound 335] | – | – | – | – | – | – | – | Test H disease control rating [1, 5]: 0* %; Test G disease control rating (Septoria tritici; [5]): 91* %; Test I disease control rating [2, 5]: 99* %; Test J disease control rating [3, 5]: 99* %; Test F disease control rating (Septoria nodorum; [5]): 82* %; Test C disease control rating (Botrytis cinerea; [5]): 100* %; Test D disease control rating (Alternaria solani; [5]): 100* %
15 | Cc1ccc(-n2c(Cl)nc(C)c2-c2c(F)ccc(F)c2F)cc1 [compound 496] | – | – | – | – | – | – | – | Test H disease control rating ([1]; 40 ppm (marked *)): 0* %; Test G disease control rating (Septoria tritici; 40 ppm (marked *)): 6* %; Test I disease control rating ([2]; 40 ppm (marked *)): 0* %; Test J disease control rating ([3]; 40 ppm (marked *)): 97* %; Test F disease control rating (Septoria nodorum; 40 ppm (marked *)): 0* %; Test C disease control rating (Botrytis cinerea; 40 ppm (marked *)): 93* %; Test D disease control rating (Alternaria solani; 40 ppm (marked *)): 99* %
16 | Fc1ccc(-n2c(Cl)nc(Br)c2-c2c(F)ccc(F)c2F)cc1 [compound 352] | 18 | 92 | 97 | 77 | 87 | 100 | 100 | –
17 | COc1nn(C)c(-c2ccc(F)cc2Cl)c1-c1ccc(I)cc1 [compound 432] | 0 | 25 | 0 | 0 | 0 | 33 | 0 | –
18 | COc1ccc(F)c(-c2c(C)nc(C)n2-c2ccc(F)cc2)c1F [Compound 549, 5-(2,6-difluoro-3-methoxyphenyl)-1-(4-fluorophenyl)-2,4-dimethyl-1H-imidazole] | – | – | – | – | – | – | – | pest or weed control at 200 ppm [1, 4]: 0%; pest or weed control at 200 ppm (Septoria tritici; [4]): 98%; pest or weed control at 200 ppm [2, 4]: 100%; pest or weed control at 200 ppm [3, 4]: 100%; pest or weed control at 200 ppm (Septoria nodorum; [4]): 99%; pest or weed control at 200 ppm (Botrytis cinerea; [4]): 100%; pest or weed control at 200 ppm (Alternaria solani; [4]): 100%
19 | COc1cc(F)c(-c2c(Cl)nc(N)n2-c2ccc(Cl)cc2)c(F)c1 [compound 638] | 0 | 99 | 95 | 56 | 55 | 99 | 99 | –
20 | Fc1ccc(F)c(-c2c(Br)ncn2-c2ccc(Cl)cc2)c1F [compound 330] | 9 | 96 | 98 | 99 | 0 | 100 | 100 | –
21 | COc1cc(F)c(-c2c(Cl)nc(Cl)n2-c2cccnc2Br)c(F)c1 [compound 576] | 100 | 100 | 100 | 99 | 100 | 100 | 99 | –
22 | COc1cc(F)c(-n2nnc(C)c2-c2ccc(Cl)cc2)c(F)c1 [compound 595] | 22 | 96 | 74 | 98 | 0 | 100 | 80 | –
23 | COc1ccc(Cl)c(-c2c(Cl)nc(C)n2-c2ccc(Cl)cc2)c1F [compound 550] | 0 | 97 | 99 | 100 | 100 | 100 | 100 | –
